We go through 3 compounds from article PMC8050083, “Naturally-occurring spinosyn A and its derivatives function as argininosuccinate synthase activator and tumor inhibitor” (Nature Communications, 2021).

Where two headings read alike, the source gives them in different places.

As usually defined, the Kd is the free concentration of one partner at which half of the binding sites on the other are occupied at equilibrium, for simple one-to-one binding. The term IC50 denotes the midpoint of a concentration-inhibition curve. In general, CC50 refers to the concentration that lowers cell viability or growth by half. Higher therefore signals lower toxicity to the cells.

The target in data set [1] is T1, Argininosuccinate synthase (ASS1) (Homo sapiens, UniProt P00966).
T1 construct: recombinant human ASS1, N-terminal 6×His tag (pET28a), NM_000050
T1 sequence (P00966 1-412): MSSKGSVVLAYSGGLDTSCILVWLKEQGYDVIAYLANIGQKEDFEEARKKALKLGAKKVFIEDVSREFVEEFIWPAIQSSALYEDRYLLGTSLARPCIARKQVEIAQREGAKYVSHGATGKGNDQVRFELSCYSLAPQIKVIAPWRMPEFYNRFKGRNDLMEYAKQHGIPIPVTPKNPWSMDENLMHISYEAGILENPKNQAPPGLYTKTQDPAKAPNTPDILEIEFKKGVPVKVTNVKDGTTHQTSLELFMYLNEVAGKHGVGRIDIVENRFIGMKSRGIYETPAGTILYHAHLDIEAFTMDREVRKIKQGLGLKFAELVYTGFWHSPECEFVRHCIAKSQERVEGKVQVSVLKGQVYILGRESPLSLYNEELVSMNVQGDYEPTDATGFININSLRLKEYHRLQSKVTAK
In words: SPR (BIAcore X100); also LC-MS/MS of Cys97 adduct, competition with Biotin-SPA, enzyme activation (AC50 […]). The data set is classed as binding. For orientation: SPR reads the build-up and loss of mass on a sensor chip optically.

The test system of data set [2] is BT474. Kind of data set: cells. More on the design: crystal violet staining viability/proliferation assay, IC50 (SPSS), LM-2I on breast cancer and normal breast epithelial lines. Conditions: Homo sapiens, BT-474; mean of 3 repeats. On the procedure:
(§1) Fig. 1 SPA and its derivative LM-2I inhibit breast cancer proliferation and growth. a Chemical structures of SPA (1). b Crystal violet assay for the effects of SPA on breast cancer cell proliferation. IC50 values were calculated with SPSS 18.0 (mean ± s.d., n = 3 biologically independent experiments). c Representative microscope images of colony formation for different breast cancer cell lines treated with SPA. Scale bars are […]. d Chemical structures of LM-2I (2). e Crystal violet assay for the effects of LM-2I on breast cancer cell proliferation. IC50 values were calculated with SPSS 18.0 (mean ± s.d., n = 3 biologically independent experiments). f Representative microscope images of colony formation for different breast cancer cell lines treated with LM-2I. Scale bars are […]. MDA-MB-231 cells were inoculated subcutaneously into the right flank of nu/nu female mice. When the average tumor size reached about 100 mm^3, mice were treated with ether vehicle, SPA (10 mg/kg/day) or LM-2I (5 mg/kg/day). Tumor sizes (g) and mouse body weight (i) were measured every 2 days. 28 days later, mice were sacrificed and tumors were dissected and weighted (h). Data represent mean ± s.d. (n = 8 mice per group). *P < 0.05, ***P < 0.001, NS: not significant (P > 0.05) from two-tailed unpaired Student’s t tests.Source data are provided as a Source Data file. All cell lines were purchased from American Type Culture Collection (ATCC, Manassas, VA, USA). The human breast cancer (BC) cell lines BT549, BT474 and T47D were maintained in RPMI 1640 containing 10% (v/v) fetal bovine serum (FBS, Gibco), 0.01 mg/mL insulin and 100 units/mL penicillin/streptomycin (HyClone). SKBR3, Hs578T, and BT20 human BC cell lines were cultured in DMEM medium with 10% (v/v) FBS and 100 units/mL penicillin/streptomycin. HCC1500, HCC1806, and HCC1937 human BC cell lines were cultured in RPMI 1640 medium supplement with 10% (v/v) FBS and 100 units/mL penicillin/streptomycin. MDA-MB-231 human BC cell line was cultured in DMEM/F12 (1: 1) medium with 10% (v/v) FBS and 100 units/mL penicillin/streptomycin. MDA-MB-468 human BC cell line was cultured in DMEM (high glucose) medium with 10% (v/v) FBS and 100 units/mL penicillin/streptomycin. MCF-7 human BC cell line was cultured in EMEM medium with 10% (v/v) FBS, 0.01 mg/mL insulin and 100 units/mL penicillin/streptomycin. […] All of the cells cultured in a humidified incubator at 37 °C and 5% CO2/95% air (v/v).

For data set [3], the system named is HCC1806. Kind of data set: cells. More on the design: crystal violet staining viability/proliferation assay, IC50 (SPSS), LM-2I on breast cancer and normal breast epithelial lines. Conditions: Homo sapiens, HCC1806; mean of 3 repeats. The method, then: as §1
Data set [4] deals with HCC1937. In words: cells. More on the design: crystal violet staining viability/proliferation assay, IC50 (SPSS), LM-2I on breast cancer and normal breast epithelial lines. Conditions: Homo sapiens, HCC1937; mean of 3 repeats. On the procedure:
as §1

The subject of data set [5] is T47D. In words: cells. To be noted: Homo sapiens, T47D; mean of 3 repeats. Set-up: crystal violet staining viability/proliferation assay, IC50 (SPSS), LM-2I on breast cancer and normal breast epithelial lines. The method, then:
as §1

Data set [6] concerns BT549. Kind of data set: cells. More on the design: crystal violet staining viability/proliferation assay, IC50 (SPSS), LM-2I on breast cancer and normal breast epithelial lines. To be noted: Homo sapiens, BT-549; mean of 3 repeats. The method, then:
as §1

Data set [7] concerns HS578T. Kind of data set: cells. Set-up: crystal violet staining viability/proliferation assay, IC50 (SPSS), LM-2I on breast cancer and normal breast epithelial lines. Conditions: Homo sapiens, Hs-578T; mean of 3 repeats. The method, then:
as §1

Data set [8] deals with MCF-7. In words: cells. Conditions: Homo sapiens, MCF7; mean of 3 repeats. Set-up: crystal violet staining viability/proliferation assay, IC50 (SPSS), LM-2I on breast cancer and normal breast epithelial lines. The method, then: as §1
Data set [9] deals with SKBR3. In words: cells. Set-up: crystal violet staining viability/proliferation assay, IC50 (SPSS), LM-2I on breast cancer and normal breast epithelial lines. To be noted: Homo sapiens, SK-BR-3; mean of 3 repeats. The method, then:
as §1

Data set [10] concerns MDA-MB-468. Kind of data set: cells. Set-up: crystal violet staining viability/proliferation assay, IC50 (SPSS), LM-2I on breast cancer and normal breast epithelial lines. To be noted: Homo sapiens, MDA-MB-468; mean of 3 repeats. The method, then:
as §1

The test system of data set [11] is HCC1500. Kind of data set: cells. Set-up: crystal violet staining viability/proliferation assay, IC50 (SPSS), LM-2I on breast cancer and normal breast epithelial lines. Conditions: HCC1500; mean of 3 repeats. On the procedure: as §1
For data set [12], the system named is BT20. In words: cells. Conditions: Homo sapiens, BT-20; mean of 3 repeats. Set-up: crystal violet staining viability/proliferation assay, IC50 (SPSS), LM-2I on breast cancer and normal breast epithelial lines. On the procedure:
as §1

Data set [13] has as its system MDA-MB-231. Kind of data set: cells. Set-up: crystal violet staining viability/proliferation assay, IC50 (SPSS), LM-2I on breast cancer and normal breast epithelial lines. To be noted: Homo sapiens, MDA-MB-231; mean of 3 repeats. The method, then:
as §1

The test system of data set [14] is 184B5. In words: in vitro. To be noted: mean of 3 repeats; given as IC50; inhibitor. Set-up: crystal violet staining viability/proliferation assay, IC50 (SPSS), LM-2I on breast cancer and normal breast epithelial lines. The method, then:
(§2) Fig. 1 SPA and its derivative LM-2I inhibit breast cancer proliferation and growth. a Chemical structures of SPA (1). b Crystal violet assay for the effects of SPA on breast cancer cell proliferation. IC50 values were calculated with SPSS 18.0 (mean ± s.d., n = 3 biologically independent experiments). c Representative microscope images of colony formation for different breast cancer cell lines treated with SPA. Scale bars are 40 µM. d Chemical structures of LM-2I (2). e Crystal violet assay for the effects of LM-2I on breast cancer cell proliferation. IC50 values were calculated with SPSS 18.0 (mean ± s.d., n = 3 biologically independent experiments). f Representative microscope images of colony formation for different breast cancer cell lines treated with LM-2I. Scale bars are 40 µM. MDA-MB-231 cells were inoculated subcutaneously into the right flank of nu/nu female mice. When the average tumor size reached about 100 mm^3, mice were treated with ether vehicle, SPA (10 mg/kg/day) or LM-2I (5 mg/kg/day). Tumor sizes (g) and mouse body weight (i) were measured every 2 days. 28 days later, mice were sacrificed and tumors were dissected and weighted (h). Data represent mean ± s.d. (n = 8 mice per group). *P < 0.05, ***P < 0.001, NS: not significant (P > 0.05) from two-tailed unpaired Student’s t tests.Source data are provided as a Source Data file. […]

Data set [15] in a line: in vitro. More on the design: crystal violet staining viability/proliferation assay, IC50 (SPSS), LM-2I on breast cancer and normal breast epithelial lines. Conditions: human, Mean; mean of 3 repeats; given as IC50. On the procedure:
as §2

Data set [16] has as its target T1, Argininosuccinate synthase (ASS1). In words: covalent labelling kinetics by streptavidin-HRP blot (kinact […] min^-1); pull-down from MCF-7 lysate. Conditions: read-out: Ki. The format is binding.
The target is the same in data set [17]. Kind of data set: SPR (BIAcore X100); also LC-MS/MS of Cys97 adduct, competition with Biotin-SPA, enzyme activation (AC50 […]). The data set is classed as binding. This is another data set of the same source.

The compound `CC[C@H]1CCC[C@H](O[C@H]2CC[C@H](N(C)CC(O)CN3CCNCC3)[C@@H](C)O2)[C@@H](C)C(=O)C2=C[C@@H]3[C@@H](C=C[C@@H]4C[C@@H](O[C@@H]5O[C@@H](C)[C@H](OC)[C@@H](OC)[C@H]5OC)C[C@@H]34)[C@@H]2CC(=O)O1` (some centres unmarked) [compound 2, LM-2I] displayed a Kd in data set [1] of 0.194 µM. Moreover, the IC50 is 6.2 µM in data set [2]; 2.13 µM in [3]; 7.64 µM in data set [4]; 5.95 µM in data set [5]; 1.51 µM in data set [6]; 1.76 µM in [7]. Also, the IC50 in data set [8] is 5.94 µM; in [9], 5.12 µM; in data set [10], 5.11 µM; in [11], 10 µM; in data set [12], 8.22 µM; in data set [13] it was 1.09 µM. Besides, the CC50 in data set [14] amounted to 7.89 µM; in data set [15], 8.52 µM.
Turning to `CC[C@H]1CCC[C@H](O[C@H]2CC[C@H](N(C)CCCCCCOC(=O)CCCC[C@@H]3SC[C@@H]4NC(=O)N[C@@H]43)[C@@H](C)O2)[C@@H](C)C(=O)C2=C[C@@H]3[C@@H](C=C[C@@H]4C[C@@H](O[C@@H]5O[C@@H](C)[C@H](OC)[C@@H](OC)[C@H]5OC)C[C@@H]34)[C@@H]2CC(=O)O1` [compound 4, Biotin-SPA], the KI (inactivation) in [16] was 9.01 µM.
`CC[C@H]1CCC[C@H](O[C@H]2CC[C@H](N(C)C)[C@@H](C)O2)[C@@H](C)C(=O)C2=C[C@@H]3[C@@H](C=C[C@@H]4C[C@@H](O[C@@H]5O[C@@H](C)[C@H](OC)[C@@H](OC)[C@H]5OC)C[C@@H]34)[C@@H]2CC(=O)O1` [compound 1, spinosyn A]: the dissociation constant (Kd) in data set [17] was 0.358 µM.
